This is an account of results in patent US4609736A, “Rhodanines useful as a therapeutic agent for diabetic complications” (Kaken Pharmaceutical Co., Ltd., priority 1983, dated 1986).

Where two headings read alike, the source gives them in different places.

Data set [1] has as its system thrombin-induced aggregation of washed rabbit platelets. Kind of data set: Platelet aggregation inhibiting activity (thrombin-induced aggregation of washed rabbit platelets). It counts as cell-based, rabbit (albino, white local breed). Conditions: for IC50: Oryctolagus cuniculus, Platelet, Table 2; for platelet aggregation inhibiting activity relative to Dipyridamole (Persantine): times that of Dipyridamole. On the procedure:
Blood samples were collected from the auricular blood vessel of albino rabbits (white local breed), and washed platelets were prepared therefrom by the method of Baenziger et al. [N. L. Baenziger and P. W. Majerus, Methods in Enzymology, 31, 149 to 155 (1974)]. The platelets were suspended in a 15 mM Tris-hydrochloric acid buffer in a final concentration of 6×10^8 cells/ml (Tris: tris(hydroxymethyl)aminomethane). Each test compound was added thereto and incubation was carried out at 37° C. for 2 minutes. Then, the platelets were stimulated by addition of thrombin (final concentration 0.2 unit/ml; made by Mochida Pharmaceutical Co.) and the aggregation inhibiting activity was estimated by observation of the aggregation reaction using an aggregometer (made by Briston Co.).
The results obtained are shown in Table 2 in terms of IC50 (50% inhibition concentration in M).

The target of a further data set is T1, aldose reductase (Rattus norvegicus, UniProt P07943).
T1 construct: the supernatant was used as the crude enzyme solution; from tissue; host or cells: eye lens of male Wistar rats, 10,000 g supernatant of the homogenate
Kind of data set: Aldose reductase inhibiting activity. The following applies: rat lens crude enzyme; DL-glyceraldehyde 10 mM, NADPH 0.104 mM, pH 6.2; Table 3; read-out: IC50 (50% inhibition concentration), aldose reductase. Type of data set: biochemical, rat (Wistar strain male, eye lens). The method, then:
Thus, Wistar strain male rats were sacrificed by decapitation, the lenses were excised and homogenized with a 0.1M phosphate buffer [pH 6.8; containing 1 mM of mercaptoethanol and 1 mM of nicotinamide-adenine dinucleotide phosphate (NADP)]. The homogenate was then centrifuged at 10,000 g for 15 minutes and the supernatant was used as the crude enzyme solution.
To this buffer solution, there was added 15 μl of each of solutions of each test compound in varied concentrations, followed by addition of 25 μl of the crude enzyme solution prepared in advance, to thereby initiate the reaction.

A short description of data set [2]: Acute toxicity in mice (oral). The following applies: mouse, in vivo, oral gavage in 10% gum arabic, 2 weeks.
[3] abbreviates: 2 min, washed rabbit platelets 6×10^8 cells/ml, thrombin 0.2 unit/ml, 37° C., 2 minutes incubation, read-out: IC50 (50% inhibition concentration), platelet aggregation.
The mark [4] stands for this setting: read-out: concentration that inhibited the thrombin-induced aggregation of washed rabbit platelets by 50%.

The term LD50 denotes the dose at which mortality reaches 50%. Low readings indicate greater toxicity, high ones lower toxicity.

Consider `C=CC=C1SC(=S)N(CC(=O)O)C1=O` [Compound No. 6, 3-Carboxymethyl-5-allylidenerhodanine], for which, in data set [1], the “platelet aggregation inhibiting activity (in words)” value is listed as “noticeably strong platelet aggregation inhibiting activity”. Besides, the IC50 in data set [1] (setting [3]) is 30 µM; in data set [1] (setting [4]) it was 20 to 40 µM; at aldose reductase, 0.75 µM. Further, the “platelet aggregation inhibiting activity relative to Dipyridamole (Persantine)” value in data set [1] is listed as “about 10 times”.

In the case of `CC(C)=CCCC(C)=CC=C1SC(=S)N(CC(=O)O)C1=O` [compound 12, 3-Carboxymethyl-5-(3,7-dimethyl-2,6-octadienylidene)rhodanine], the IC50 in data set [1] (setting [3]) was > 300 µM. This compound yielded an LD50 at 336 h in data set [2] of 3500 to 5000 mg/kg.

Turning to `CC=CC=CC=C1SC(=S)N(CC(=O)O)C1=O` [Compound No. 11, 3-Carboxymethyl-5-(2,4-hexadienylidene)rhodanine], the “platelet aggregation inhibiting activity (in words)” value in data set [1] is recorded as “noticeably strong platelet aggregation inhibiting activity”. Also, the IC50 in data set [1] (setting [3]) is 20 µM; in data set [1] (setting [4]), 20 to 40 µM; at aldose reductase, 0.046 µM. Moreover, in data set [1], the “platelet aggregation inhibiting activity relative to Dipyridamole (Persantine)” value is given as “about 10 times”. In data set [2], this compound gave a 50% lethal dose (LD50) at 336 h of 3500 to 5000 mg/kg.

Take `CC(C)(C)C=C1SC(=S)N(CC(=O)O)C1=O` [compound 3, 3-Carboxymethyl-5-(2,2-dimethylpropylidene)rhodanine]: the IC50 in data set [1] (setting [3]) is > 300 µM; at aldose reductase, 0.1 µM.

Consider `CC(C)=CCCC(C)=CCCC(C)=CCCC(C)=CC=C1SC(=S)N(CC(=O)O)C1=O` [Compound No. 13, 3-Carboxymethyl-5-(3,7,11,15-tetramethyl-2,6,10,14-hexadecatetraenylidene)rhodanine], for which, in data set [1], the “platelet aggregation inhibiting activity (in words)” value was “noticeably strong platelet aggregation inhibiting activity”. Besides, the IC50 in data set [1] (setting [3]) is 40 µM; in data set [1] (setting [4]), 20 to 40 µM; at aldose reductase, 0.65 µM. Moreover, the “platelet aggregation inhibiting activity relative to Dipyridamole (Persantine)” value in data set [1] was “about 10 times”. The LD50 at 336 h in data set [2] was in the range of 3500 to 5000 mg/kg.

In the case of `CCCCCCCCCCC=C1SC(=S)N(CC(=O)O)C1=O` [compound 4, 3-Carboxymethyl-5-undecylidenerhodanine], the IC50 is > 300 µM in data set [1] (setting [3]) and 0.3 µM on aldose reductase.

For the compound `CCCC=CC=C1SC(=S)N(CC(=O)O)C1=O` [Compound No. 10, 3-Carboxymethyl-5-(2-hexenylidene)rhodanine], the “platelet aggregation inhibiting activity (in words)” value in data set [1] is given as “noticeably strong platelet aggregation inhibiting activity”. In addition, the IC50 in data set [1] (setting [3]) is 30 µM; in data set [1] (setting [4]), 20 to 40 µM; at aldose reductase, 0.04 µM. Further, the “platelet aggregation inhibiting activity relative to Dipyridamole (Persantine)” value in data set [1] was “about 10 times”. The compound further returned an LD50 at 336 h in data set [2] of 3500 to 5000 mg/kg.

For the compound `CC=CC=C1SC(=S)N(CC(=O)O)C1=O` [Compound No. 7, 3-Carboxymethyl-5-(2-butenylidene)rhodanine], in data set [1], the “platelet aggregation inhibiting activity (in words)” value is given as “noticeably strong platelet aggregation inhibiting activity”. The IC50 was 20 µM in data set [1] (setting [3]), 20 to 40 µM in data set [1] (setting [4]) and 0.07 µM at aldose reductase. Also, the “platelet aggregation inhibiting activity relative to Dipyridamole (Persantine)” value in data set [1] is “about 10 times”. This compound also gave a median lethal dose (LD50) at 336 h in data set [2] of 3500 to 5000 mg/kg.

Regarding `CCC=C1SC(=S)N(CC(=O)O)C1=O` [Compound No. 1, 3-Carboxymethyl-5-propylidenerhodanine], the IC50 in data set [1] (setting [3]) is > 300 µM; at aldose reductase, 0.2 µM.

For the compound `O=C(O)CN1C(=O)C(=CCCCCl)SC1=S` [compound 2, 3-Carboxymethyl-5-(4-chlorobutylidene)rhodanine], the IC50 in data set [1] (setting [3]) was > 300 µM; at aldose reductase, 0.14 µM.

Turning to `CCCCCC=C1SC(=S)N(CC(=O)O)C1=O` [compound 5, 3-Carboxymethyl-5-n-hexylidenerhodanine], the IC50 in data set [1] (setting [3]) is > 300 µM; on aldose reductase it was 0.13 µM.

With `O=C(O)CN1C(=O)C(=CC=CCCl)SC1=S` [Compound No. 8, 3-Carboxymethyl-5-(4-chloro-2-butenylidene)rhodanine], the “platelet aggregation inhibiting activity (in words)” value in data set [1] was “noticeably strong platelet aggregation inhibiting activity”. Also, the IC50 was 20 µM in data set [1] (setting [3]), 20 to 40 µM in data set [1] (setting [4]) and 0.13 µM on aldose reductase. The “platelet aggregation inhibiting activity relative to Dipyridamole (Persantine)” value in data set [1] is listed as “about 10 times”.

With `CC(C)=CC=C1SC(=S)N(CC(=O)O)C1=O` [compound 9, 3-Carboxymethyl-5-(3-methyl-2-butenylidene)rhodanine], the values for the IC50 (in data set [1] (setting [3]); on aldose reductase) were > 400 µM and 0.1 µM, respectively.
